Measurements from ChEMBL document CHEMBL5653615 (J Biol Chem, 2013).

Tests used:
[1] = biological target: Receptor-interacting serine/threonine-protein kinase 2 (Homo sapiens) (UniProt O43353); test: Inhibition of human RIPK2 at 500 nM by HotSpot assay relative to control
[2] = biological target: Insulin-like growth factor 1 receptor (Homo sapiens, UniProt P08069); test: Inhibition of inactive form of IGF-1R (unknown origin) kinase domain incubated for 1 hr by [gamma-33P]ATP assay
[3] = biological target: T1, Ephrin type-A receptor 1 (Homo sapiens) (UniProt P21709); test: Inhibition of human EPHA1 at 500 nM by HotSpot assay relative to control
T1 sequence (whole entry): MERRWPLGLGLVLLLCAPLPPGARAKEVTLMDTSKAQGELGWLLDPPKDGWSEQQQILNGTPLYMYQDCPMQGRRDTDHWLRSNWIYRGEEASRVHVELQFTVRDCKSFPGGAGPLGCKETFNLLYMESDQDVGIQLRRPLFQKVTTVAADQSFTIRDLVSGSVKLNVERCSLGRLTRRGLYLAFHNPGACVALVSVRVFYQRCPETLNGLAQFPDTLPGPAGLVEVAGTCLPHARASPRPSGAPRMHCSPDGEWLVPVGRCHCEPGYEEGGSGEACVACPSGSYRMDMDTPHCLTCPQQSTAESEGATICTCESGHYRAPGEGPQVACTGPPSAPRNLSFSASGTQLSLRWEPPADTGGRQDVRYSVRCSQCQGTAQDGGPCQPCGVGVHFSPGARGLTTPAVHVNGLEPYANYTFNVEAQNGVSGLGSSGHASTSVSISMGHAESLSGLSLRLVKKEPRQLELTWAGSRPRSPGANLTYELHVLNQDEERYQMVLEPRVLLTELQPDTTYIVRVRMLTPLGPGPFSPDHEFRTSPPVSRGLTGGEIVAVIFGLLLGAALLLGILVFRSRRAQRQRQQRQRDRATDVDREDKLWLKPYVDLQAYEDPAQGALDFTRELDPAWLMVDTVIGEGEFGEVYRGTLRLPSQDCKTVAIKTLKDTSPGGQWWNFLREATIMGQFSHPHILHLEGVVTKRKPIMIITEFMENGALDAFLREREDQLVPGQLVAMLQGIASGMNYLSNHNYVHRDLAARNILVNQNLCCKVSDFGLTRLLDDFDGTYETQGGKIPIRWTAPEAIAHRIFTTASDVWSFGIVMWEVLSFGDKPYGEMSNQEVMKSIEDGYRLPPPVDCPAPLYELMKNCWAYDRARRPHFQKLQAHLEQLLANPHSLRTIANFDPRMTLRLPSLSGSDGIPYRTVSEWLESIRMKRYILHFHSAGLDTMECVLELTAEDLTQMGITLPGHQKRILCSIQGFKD

[4] = biological target: T2, Ephrin type-B receptor 3 (Homo sapiens) (UniProt P54753); test: Inhibition of human EPHB3 at 500 nM by HotSpot assay relative to control
T2 sequence (whole entry): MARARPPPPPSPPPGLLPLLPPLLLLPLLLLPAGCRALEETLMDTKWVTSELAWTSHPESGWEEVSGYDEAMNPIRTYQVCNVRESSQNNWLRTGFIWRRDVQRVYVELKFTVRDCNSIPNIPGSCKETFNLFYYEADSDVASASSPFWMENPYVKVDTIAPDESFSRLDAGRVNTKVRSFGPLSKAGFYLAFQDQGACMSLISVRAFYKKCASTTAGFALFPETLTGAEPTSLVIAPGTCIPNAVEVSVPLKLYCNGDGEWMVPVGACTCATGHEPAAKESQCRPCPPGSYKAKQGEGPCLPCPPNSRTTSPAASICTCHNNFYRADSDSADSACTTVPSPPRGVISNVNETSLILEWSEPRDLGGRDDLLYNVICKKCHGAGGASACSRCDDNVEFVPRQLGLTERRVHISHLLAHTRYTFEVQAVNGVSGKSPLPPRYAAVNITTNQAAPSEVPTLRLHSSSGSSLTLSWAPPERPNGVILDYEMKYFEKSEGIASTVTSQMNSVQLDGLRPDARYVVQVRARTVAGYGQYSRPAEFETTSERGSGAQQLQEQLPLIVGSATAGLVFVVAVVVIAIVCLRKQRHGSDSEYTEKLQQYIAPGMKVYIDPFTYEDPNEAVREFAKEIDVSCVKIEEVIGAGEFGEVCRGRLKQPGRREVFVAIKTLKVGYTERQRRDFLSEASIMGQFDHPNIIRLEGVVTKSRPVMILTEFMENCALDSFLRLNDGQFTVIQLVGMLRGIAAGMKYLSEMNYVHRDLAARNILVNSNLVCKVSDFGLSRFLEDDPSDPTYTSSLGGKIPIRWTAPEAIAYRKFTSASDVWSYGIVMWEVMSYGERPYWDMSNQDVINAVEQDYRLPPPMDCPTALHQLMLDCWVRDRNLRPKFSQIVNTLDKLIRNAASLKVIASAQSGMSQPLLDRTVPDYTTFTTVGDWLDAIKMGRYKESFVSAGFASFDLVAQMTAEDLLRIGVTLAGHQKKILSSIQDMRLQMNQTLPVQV

[5] = biological target: G protein-coupled receptor kinase 5 (Homo sapiens) (UniProt P34947); test: Inhibition of human GRK5 at 500 nM by HotSpot assay relative to control
[6] = biological target: Tyrosine-protein kinase SYK (Homo sapiens) (UniProt P43405); test: Inhibition of human SYK at 500 nM by HotSpot assay relative to control
[7] = biological target: Dual specificity tyrosine-phosphorylation-regulated kinase 1B (Homo sapiens) (UniProt Q9Y463); test: Inhibition of human DYRK1B at 500 nM by HotSpot assay relative to control
[8] = biological target: Vascular endothelial growth factor receptor 3 (Homo sapiens) (UniProt P35916); test: Inhibition of human FLT4 at 500 nM by HotSpot assay relative to control
[9] = biological target: Ribosomal protein S6 kinase alpha-6 (Homo sapiens) (UniProt Q9UK32); test: Inhibition of human RSK4 at 500 nM by HotSpot assay relative to control
[10] = biological target: CDK9/cyclin T1 (Homo sapiens) (UniProt O60563+P50750); test: Inhibition of human CDK9/cyclin T1 at 500 nM by HotSpot assay relative to control; assay type: protein-complex assay

Chain of Vascular endothelial growth factor receptor 3 (Homo sapiens) (P35916 whole entry): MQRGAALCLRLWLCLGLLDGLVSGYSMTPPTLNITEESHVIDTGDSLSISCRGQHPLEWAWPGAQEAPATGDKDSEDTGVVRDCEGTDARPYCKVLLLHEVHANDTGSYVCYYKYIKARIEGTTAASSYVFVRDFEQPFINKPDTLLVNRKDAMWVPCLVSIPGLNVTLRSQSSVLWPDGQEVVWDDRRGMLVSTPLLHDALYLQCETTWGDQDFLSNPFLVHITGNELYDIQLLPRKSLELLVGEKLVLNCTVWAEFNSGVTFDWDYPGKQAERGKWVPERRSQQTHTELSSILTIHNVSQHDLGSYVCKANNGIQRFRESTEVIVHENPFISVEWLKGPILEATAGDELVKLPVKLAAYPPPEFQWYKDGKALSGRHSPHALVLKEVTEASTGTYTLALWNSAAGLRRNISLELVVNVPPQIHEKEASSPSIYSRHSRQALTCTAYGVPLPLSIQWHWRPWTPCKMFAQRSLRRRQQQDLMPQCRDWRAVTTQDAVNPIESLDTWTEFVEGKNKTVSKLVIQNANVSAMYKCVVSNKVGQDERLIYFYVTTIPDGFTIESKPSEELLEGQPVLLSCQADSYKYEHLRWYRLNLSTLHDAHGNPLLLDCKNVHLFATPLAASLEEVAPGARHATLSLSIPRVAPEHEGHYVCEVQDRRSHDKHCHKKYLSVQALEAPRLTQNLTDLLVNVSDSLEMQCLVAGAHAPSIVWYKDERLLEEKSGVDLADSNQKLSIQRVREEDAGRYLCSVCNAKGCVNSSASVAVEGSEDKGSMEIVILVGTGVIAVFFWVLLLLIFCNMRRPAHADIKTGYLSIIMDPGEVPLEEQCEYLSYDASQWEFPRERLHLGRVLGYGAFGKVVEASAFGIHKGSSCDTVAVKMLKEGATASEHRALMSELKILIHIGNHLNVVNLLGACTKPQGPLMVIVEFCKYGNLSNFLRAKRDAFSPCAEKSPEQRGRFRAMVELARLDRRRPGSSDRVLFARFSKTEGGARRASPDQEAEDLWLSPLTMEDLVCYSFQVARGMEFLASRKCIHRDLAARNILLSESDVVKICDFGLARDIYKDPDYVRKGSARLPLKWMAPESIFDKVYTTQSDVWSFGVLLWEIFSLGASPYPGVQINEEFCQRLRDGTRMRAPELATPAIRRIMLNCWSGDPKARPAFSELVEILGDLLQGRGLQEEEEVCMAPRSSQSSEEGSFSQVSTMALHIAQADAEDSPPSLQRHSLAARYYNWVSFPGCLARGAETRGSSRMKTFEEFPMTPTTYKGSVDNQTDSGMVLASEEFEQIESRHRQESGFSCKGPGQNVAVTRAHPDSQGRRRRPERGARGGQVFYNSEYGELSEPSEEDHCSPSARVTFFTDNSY
Chain of Ribosomal protein S6 kinase alpha-6 (Homo sapiens) (Q9UK32 whole entry): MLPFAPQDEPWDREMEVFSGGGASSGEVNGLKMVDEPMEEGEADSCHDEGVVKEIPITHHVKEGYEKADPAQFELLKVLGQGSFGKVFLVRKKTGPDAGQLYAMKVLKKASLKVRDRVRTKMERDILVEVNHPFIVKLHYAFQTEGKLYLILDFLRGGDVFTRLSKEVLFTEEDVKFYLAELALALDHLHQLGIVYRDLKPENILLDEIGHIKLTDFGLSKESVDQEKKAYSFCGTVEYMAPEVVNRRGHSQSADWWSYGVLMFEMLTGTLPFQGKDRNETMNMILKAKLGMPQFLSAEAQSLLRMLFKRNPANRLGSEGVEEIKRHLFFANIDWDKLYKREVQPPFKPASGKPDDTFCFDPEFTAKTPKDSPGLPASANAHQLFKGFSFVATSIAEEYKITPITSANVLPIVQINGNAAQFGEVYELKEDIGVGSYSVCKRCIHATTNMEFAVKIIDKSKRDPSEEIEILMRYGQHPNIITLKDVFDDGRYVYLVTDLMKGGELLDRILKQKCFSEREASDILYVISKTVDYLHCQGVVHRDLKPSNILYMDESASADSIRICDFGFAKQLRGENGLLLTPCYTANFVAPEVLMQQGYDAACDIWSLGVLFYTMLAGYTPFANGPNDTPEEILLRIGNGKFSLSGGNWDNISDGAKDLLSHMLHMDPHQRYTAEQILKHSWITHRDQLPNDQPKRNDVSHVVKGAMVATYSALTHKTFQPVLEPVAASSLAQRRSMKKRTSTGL
Chain of Insulin-like growth factor 1 receptor (P08069 31-736 limits assumed): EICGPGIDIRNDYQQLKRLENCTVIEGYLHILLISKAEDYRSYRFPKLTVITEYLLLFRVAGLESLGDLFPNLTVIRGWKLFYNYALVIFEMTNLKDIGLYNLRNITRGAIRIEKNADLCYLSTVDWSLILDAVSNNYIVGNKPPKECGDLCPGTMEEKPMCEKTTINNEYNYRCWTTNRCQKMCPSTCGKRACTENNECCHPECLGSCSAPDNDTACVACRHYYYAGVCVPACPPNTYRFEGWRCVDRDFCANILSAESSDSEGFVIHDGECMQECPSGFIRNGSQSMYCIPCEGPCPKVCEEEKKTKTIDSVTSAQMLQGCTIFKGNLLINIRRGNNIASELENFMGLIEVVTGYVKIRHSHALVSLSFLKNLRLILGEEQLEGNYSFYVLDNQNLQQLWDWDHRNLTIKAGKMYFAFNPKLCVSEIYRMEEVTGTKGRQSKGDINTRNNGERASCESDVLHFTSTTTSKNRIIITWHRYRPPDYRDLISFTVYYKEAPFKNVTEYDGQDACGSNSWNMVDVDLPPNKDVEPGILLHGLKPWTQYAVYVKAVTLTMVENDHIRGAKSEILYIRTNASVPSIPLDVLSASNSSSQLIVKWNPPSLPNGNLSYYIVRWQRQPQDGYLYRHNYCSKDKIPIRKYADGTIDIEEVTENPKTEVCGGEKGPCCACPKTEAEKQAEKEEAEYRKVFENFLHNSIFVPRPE
Chain of Insulin-like growth factor 1 receptor (P08069 741-1367 limits assumed): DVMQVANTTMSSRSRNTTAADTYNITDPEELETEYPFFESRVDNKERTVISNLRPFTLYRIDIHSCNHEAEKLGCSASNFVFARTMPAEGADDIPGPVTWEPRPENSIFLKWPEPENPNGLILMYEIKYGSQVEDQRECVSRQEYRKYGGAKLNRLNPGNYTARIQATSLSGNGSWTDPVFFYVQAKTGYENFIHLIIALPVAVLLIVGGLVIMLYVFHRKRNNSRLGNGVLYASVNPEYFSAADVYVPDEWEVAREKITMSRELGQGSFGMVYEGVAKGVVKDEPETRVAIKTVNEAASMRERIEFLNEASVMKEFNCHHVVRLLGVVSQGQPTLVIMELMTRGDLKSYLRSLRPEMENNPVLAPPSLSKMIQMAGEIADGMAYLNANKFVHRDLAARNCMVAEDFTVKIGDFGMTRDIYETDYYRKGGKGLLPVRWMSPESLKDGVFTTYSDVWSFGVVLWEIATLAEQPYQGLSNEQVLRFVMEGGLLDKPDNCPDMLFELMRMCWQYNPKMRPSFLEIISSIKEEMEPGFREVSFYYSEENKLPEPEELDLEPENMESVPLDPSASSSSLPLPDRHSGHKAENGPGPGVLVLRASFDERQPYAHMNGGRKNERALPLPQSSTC
Chain of Dual specificity tyrosine-phosphorylation-regulated kinase 1B (Homo sapiens) (Q9Y463 whole entry, looked up): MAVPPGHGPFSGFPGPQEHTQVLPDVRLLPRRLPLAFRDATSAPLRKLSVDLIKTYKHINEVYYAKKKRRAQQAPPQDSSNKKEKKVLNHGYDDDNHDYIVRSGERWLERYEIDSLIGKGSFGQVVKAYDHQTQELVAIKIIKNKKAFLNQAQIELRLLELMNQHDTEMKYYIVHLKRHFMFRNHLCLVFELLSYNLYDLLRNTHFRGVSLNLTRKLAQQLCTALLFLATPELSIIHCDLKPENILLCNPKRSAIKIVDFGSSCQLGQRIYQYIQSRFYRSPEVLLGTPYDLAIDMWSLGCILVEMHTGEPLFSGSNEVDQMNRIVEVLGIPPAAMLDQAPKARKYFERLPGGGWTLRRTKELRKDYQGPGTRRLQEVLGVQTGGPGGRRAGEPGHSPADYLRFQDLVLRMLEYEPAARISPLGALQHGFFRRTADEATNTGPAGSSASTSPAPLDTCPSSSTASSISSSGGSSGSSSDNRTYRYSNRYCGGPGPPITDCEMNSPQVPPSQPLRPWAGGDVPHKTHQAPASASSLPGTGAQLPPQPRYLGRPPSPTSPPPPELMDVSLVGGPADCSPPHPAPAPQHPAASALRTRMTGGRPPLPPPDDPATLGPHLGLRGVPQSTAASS
Chain of Receptor-interacting serine/threonine-protein kinase 2 (Homo sapiens) (O43353 whole entry, the tested form may be a part): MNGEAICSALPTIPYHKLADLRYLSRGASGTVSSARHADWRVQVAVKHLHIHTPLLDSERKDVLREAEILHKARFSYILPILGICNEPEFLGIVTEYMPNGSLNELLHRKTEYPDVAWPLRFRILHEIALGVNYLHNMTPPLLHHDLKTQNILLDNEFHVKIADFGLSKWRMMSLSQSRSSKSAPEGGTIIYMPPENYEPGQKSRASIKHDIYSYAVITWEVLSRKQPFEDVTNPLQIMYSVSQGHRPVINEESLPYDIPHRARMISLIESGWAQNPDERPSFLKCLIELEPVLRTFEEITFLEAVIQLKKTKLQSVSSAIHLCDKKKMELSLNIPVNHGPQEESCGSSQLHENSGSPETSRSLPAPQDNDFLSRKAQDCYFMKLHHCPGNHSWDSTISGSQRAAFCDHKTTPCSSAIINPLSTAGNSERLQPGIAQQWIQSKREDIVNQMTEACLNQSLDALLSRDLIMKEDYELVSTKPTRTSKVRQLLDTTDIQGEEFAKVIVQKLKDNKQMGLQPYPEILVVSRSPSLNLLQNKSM

Nc1n[nH]c2nnc(-c3c(-c4ccccc4)nn4ccccc34)cc12
inhibition [1]: 13%
IC50 [2]: 32.5 µM
inhibition [3]: 7.41%
inhibition [4]: 3.21%
inhibition [5]: -6.2%
inhibition [6]: 2.6%
inhibition [7]: -0.86%
inhibition [8]: 10.1%
inhibition [9]: 4.48%
inhibition [10]: 2.74%

Oc1n[nH]c2nnc(-c3c(-c4ccccc4)nn4ccccc34)cc12
inhibition [1]: 11.9%
IC50 [2]: 10.2 µM
inhibition [3]: 4.34%
inhibition [4]: -1.08%
inhibition [5]: -0.63%
inhibition [6]: 0.47%
inhibition [7]: -1.78%
inhibition [8]: 0.44%
inhibition [9]: -2.71%
inhibition [10]: 3.66%
